Test results from patent publication US8722901B2, “Carboxy oxazole or thiazole compounds as DGAT-1 inhibitors useful for the treatment of obesity” (Piramal Enterprises Limited, priority 2009, dated 2014).

How the values were obtained:
Swiss mice = assay: Fat tolerance test (ftt) in mice; assay type: in vivo; settings: 3 mg/kg p.o., olive oil load 10 ml/kg p.o., reduction in AUC0-4h, vehicle group as 100%
Procedure: Study Protocol for Screening of Compounds for Fat Tolerance Test (ftt) in Mice
Swiss mice of age 4-5 weeks and body weight between 25-30 g were selected for study. After overnight fasting, animals were divided into three groups based on plasma triglyceride level with same mean and variation Animals were administered with either vehicle (1% Tween 80 in 0.5% carboxy methylcellulose) or with compounds of the present invention (3 mg/kg, p.o.). Compounds of the present invention were prepared as suspension in 0.5% carboxy methylcellulose (CMC) with 1% Tween 80. 30 minutes after the treatment, olive oil load (10 ml/kg, p.o.) was given. Blood samples were collected at 1, 2, 3 and 4 h after the fat (olive oil) load. Plasma was separated and triglyceride level was measured using commercially available kits (Diasys, Germany). Percentage reduction in area under curve (AUC0-4h) of the test compound was calculated by taking AUC0-4h of the vehicle group as 100%.

hDGAT-1 = target: T1, hDGAT-1 (Homo sapiens, UniProt O75907); assay: In-vitro DGAT-1 assay (14C oleoyl CoA, microsomes from Sf9 cells); assay type: biochemical; settings: 1 μM compound; hDGAT-1 containing microsomes from Sf9 cells
T1 construct: host or cells: Sf9 insect cells (baculovirus); microsomal fraction
T1 sequence (O75907 1-488): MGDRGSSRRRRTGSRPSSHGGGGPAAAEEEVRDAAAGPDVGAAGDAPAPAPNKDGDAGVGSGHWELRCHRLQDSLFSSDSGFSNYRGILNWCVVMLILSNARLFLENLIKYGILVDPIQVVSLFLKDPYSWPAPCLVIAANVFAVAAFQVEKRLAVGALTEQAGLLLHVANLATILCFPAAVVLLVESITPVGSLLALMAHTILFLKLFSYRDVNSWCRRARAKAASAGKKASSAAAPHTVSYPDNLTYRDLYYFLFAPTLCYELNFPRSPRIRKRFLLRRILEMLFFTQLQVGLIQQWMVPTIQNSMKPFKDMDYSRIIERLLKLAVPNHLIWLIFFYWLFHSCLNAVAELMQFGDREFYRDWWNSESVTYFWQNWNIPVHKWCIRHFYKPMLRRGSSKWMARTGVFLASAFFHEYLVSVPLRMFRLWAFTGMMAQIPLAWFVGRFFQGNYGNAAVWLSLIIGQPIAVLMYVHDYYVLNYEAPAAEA
Procedure: In-Vitro Protocol for DGAT-1 Assay
Sf9 Culture and Treatment
Sf9 cells were grown in T25 flasks containing Graces's Insect media (Invitrogen, US) with 10% FBS (Hyclone, US) with antibiotic (100 units/mL penicillin, 100 μg/mL streptomycin sulphate, 0.25 μg/mL amphotericin B as Fungizone) grown in a 27° C. incubator.
hDGAT-10RF expression clone (RZPDo839C09146 in pDEST vector) was obtained from RZPD, Germany. hDGAT-1 bacmid DNA was obtained by transformation of the hDGAT expression clone into DH10Bac E. coli competent cells. Approximately 1 μg of hDGAT-1 bacmid DNA was infected into Sf9 cells with Cellfectin (Invitrogen, US) reagent. Following infection, Sf9 cells were incubated at 27° C. for 30 minutes. Five hours after infection, the media was replaced with growth media containing antibiotic (100 units/mL penicillin, 100 μg/mL streptomycin sulphate, 0.25 μg/mL amphotericin B as Fungizone) and incubated at 27° C. for 72 hours. The supernatant containing the virus was centrifuged at 1500 g for 5 minutes, passed through 0.22 μm filter, and subsequently stored at 4° C. The virus was further amplified three more times by re-infection of Sf9 cells and the viral titer was determined by plaque assay.
Preparation of DGAT-1 Microsomes from Sf9 Cells
Sf9 cells were seeded in spinner flasks on day 0 at a cell density of 1×10^6 and infected on day 1 with hDGAT-1 baculovirus at a multiplicity of infection (MOI) of 5 and a cell density of 2×10^6. On day 3 (or 66-72 hours), cells were harvested and centrifuged at 2500 g for 10 minutes. Pellet was resuspended in lysis buffer (100 mM sucrose, 50 mM KCl, 40 mM KH2PO4, 30 mM EDTA, pH 7.2) and passed through 21-gauge needle approximately 10 times. […] The supernatant was subjected to centrifugation at 35,000 rpm in a Beckman Ti-45 rotor at 4° C. for 1 hour. The resultant pellet containing the microsomes were resuspended overnight in 1 mL of lysis buffer and total protein concentration was estimated using Bradford Reagent (Sigma, US). Microsomes were aliquoted and stored at −80° C.
Measurement of DGAT-1 Activity
Frozen aliquots of hDGAT-1 containing microsomes were thawed (5-10 mg/mL total protein) on ice and diluted to a working stock of 1 mg/mL with DGAT Assay Buffer (DAB).
The assay was performed in duplicates in a reaction volume of 100 μL. […] Procedure:
The reaction was started by the addition of […] of 1 mg/mL of microsomes (iv) to the mixture and incubated at 37° C. for 10 minutes. […] The mixture was vortexed and the triglycerides formed were extracted into the organic heptane phase.

Compound	% Reduction (Plasma triglyceride) (Swiss mice)	% inhibition of hDGAT-1 at 1 μM (hDGAT-1)	inhibition at 1 µM (hDGAT-1)
CC(C)C(NC(=O)c1ncc(-c2ccc(NC(=O)Nc3ccccc3Oc3ccccc3)cc2)s1)C(=O)O (centres unmarked) [Example 16, 3-methyl-2-(5-(4-(3-(2-phenoxyphenyl)ureido)phenyl)thiazole-2-carboxamido)butanoic acid]	++ (>50% Reduction ≦100)	–	–
CC(C)C(NC(=O)c1ncc(-c2ccc(NC(=O)Nc3cccc(C(F)(F)F)c3)cc2)s1)C(=O)O (centres unmarked) [Example 10, 3-methyl-2-(5-(4-(3-(3-(trifluoromethyl)phenyl)ureido)phenyl)thiazole-2-carboxamido)butanoic acid]	++ (>50% Reduction ≦100)	–	–
CC(C)C(NC(=O)c1ncc(-c2ccc(Nc3nc4ccc(F)cc4s3)cc2)s1)C(=O)O (centres unmarked) [Example 20, 2-(5-(4-(6-fluorobenzo[d]thiazol-2-ylamino)phenyl)thiazole-2-carboxamido)-3-methylbutanoic acid]	++ (>50% Reduction ≦100)	–	–
2-(5-(4-(3-(3,4-dimethylphenyl)ureido)phenyl)oxazole-2-carboxamido)-3-methylbutanoic acid [Example 14]	++ (>50% Reduction ≦100)	++ (>50% Inhibition ≦100)	–
CC(C)C(NC(=O)c1ncc(-c2ccc(NC(=O)Nc3ccccc3Cl)cc2)s1)C(=O)O (centres unmarked) [Example 12, 2-(5-(4-(3-(2-Chlorophenyl)ureido)phenyl)thiazole-2-carboxamido)-3-methylbutanoic acid]	++ (>50% Reduction ≦100)	–	–
CC(C)C(NC(=O)c1ncc(-c2ccc(NC(=O)Nc3ccccc3Cl)cc2)o1)C(=O)O (centres unmarked) [Example 4, 2-(5-(4-(3-(2-Chlorophenyl)ureido)phenyl)oxazole-2-carboxamido)-3-methylbutanoic acid]	+ (>0% Reduction ≦50)	–	50 to 100%
CC(C)C(NC(=O)c1ncc(-c2ccc(NC(=O)c3ccc(C(C)(C)C)cc3)cc2)s1)C(=O)O (centres unmarked) [Example 22, 2-(5-(4-(4-tert-butylbenzamido)phenyl)thiazole-2-carboxamido)-3-methylbutanoic acid]	++ (>50% Reduction ≦100)	–	–
CC(C)C(NC(=O)c1ncc(-c2ccc(NC(=O)Nc3ccc(Cl)cc3Oc3ccccc3)cc2)s1)C(=O)O (centres unmarked) [Example 18, 2-(5-(4-(3-(4-chloro-2-phenoxyphenyl)ureido)phenyl)thiazole-2-carboxamido)-3-methylbutanoic acid]	++ (>50% Reduction ≦100)	–	–
CC(C)C(NC(=O)c1ncc(-c2ccc(NC(=O)Nc3cccc(C(F)(F)F)c3)cc2)o1)C(=O)O (centres unmarked) [Example 2, 3-Methyl-2-(5-(4-(3-(3-(trifluoromethyl)phenyl)ureido)phenyl)oxazole-2-carboxamido)butanoic acid]	–	–	50 to 100%
